Measured values taken from patent publication US8975241B2, “Composition for treating and preventing obesity including high water-soluble 2-hydroxypropyl-betacyclodextrin as effective component” (Song Ho Biomed Co., Ltd., priority 2009, dated 2015).

How the values were obtained:
[1] = test system: mouse; settings: cited from earlier work
[2] = test system: high fat diet-mouse; assay: Change in body weight by oral administration in high fat diet-mouse; assay type: in vivo; settings: Table 19, β-CD 15% (w/v) oral
[3] = test system: mouse model with obesity caused by a high fat diet; assay: Change in body weight by autonomically drinking in mouse model with obesity caused by high fat diet; assay type: in vivo
[4] = test system: human; settings: cited from earlier work
[5] = test system: mouse model with obesity caused by a high fat diet; assay: Change in body weight by autonomically drinking in mouse model with obesity caused by high fat diet; assay type: in vivo; settings: for degree of body weight decrease as compared with HPBCD: autonomically drinking
Protocol: Male C57BL/6J mice (Five age of the week, KRIBB, Korea) were accommodated for 1 week, and then were induced with obesity by giving a high fat diet (60% fat kcal, Research Diets) for 15 days. The weights of the animals that were induced with obesity were equally divided into 3 animals as one group. And then, the solvent-control group drank sterilized distilled water, autonomically. Hydroxypropyl-β-cyclodextrin (HPBCD) was dissolved in sterilized distilled water to be 10, 15, and 20% (W/V) concentrations for drinking autonomically. A change in body weight was daily measured to all of animals during the test; the fixed amount of feeds was provided at the day of measuring body weight, and then an amount of intake per a group (g/day) was calculated by measuring a residual amount of feeds at the next day. A change in body weight was measured during the test using α-cyclodextrin (α-CD) instead of 2-hydroxypropyl-β-cyclodextrin (HPBCD) in the same method as the above <Example 1>.

[6] = test system: high fat diet-mouse; assay: Change in body weight by oral administration in high fat diet-mouse; assay type: in vivo; settings: for degree of body weight decrease as compared with HPBCD: method of Example 3 (oral)
Protocol: Male C57BL/6J mice (Five age of the week, KRIBB, Korea) were accommodated for 1 week. And then, the weights of the animals were equally divided into 5 animals as one group. While a high fat diet (60% fat kcal) was provided, sterilized distilled water and HPBCDs with 10, 20, and 40% (W/V) were orally administered at three times (Morning, Afternoon, Evening) a day for 5 days in 0.2 ml per 20 g body weight of a mouse at the same time. A change in body weight was measured to all of the animals during the test at one time per day; the fixed amount of feeds was provided at the day of measuring body weight, and then an average amount of intake per an animal (g/mouse/day) was calculated by measuring a residual amount of feeds at the next day.
A body weight was measured by using the same conditions as the above <Example 3>, except that BCDs with 10 and 20% (W/V) concentrations were used instead of HPBCDs with 10, 20, and 40% (W/V) concentrations.
A change in body weight was measured during the test using α-CD instead of HPBCD in the same method as the above <Example 3>.

In the case of `OC[C@H]1O[C@@H]2O[C@H]3[C@H](O)[C@@H](O)[C@@H](O[C@H]4[C@H](O)[C@@H](O)[C@@H](O[C@H]5[C@H](O)[C@@H](O)[C@@H](O[C@H]6[C@H](O)[C@@H](O)[C@@H](O[C@H]7[C@H](O)[C@@H](O)[C@@H](O[C@H]8[C@H](O)[C@@H](O)[C@@H](O[C@H]1[C@H](O)[C@H]2O)O[C@@H]8CO)O[C@@H]7CO)O[C@@H]6CO)O[C@@H]5CO)O[C@@H]4CO)O[C@@H]3CO` [BCD, β-cyclodextrin], the antiobesity effect [1] is given as “suppress a weight increase”, the “Body weight as percent of initial body weight” value (“Body weight as percent” below) ([2]; 0 Day) is given as 100.0 ± 0.0% and the “Body weight as percent” value ([2]; 1 Day) is given as 99.6 ± 1.2%. The “Change in body weight (%)” value ([3]; Table 18, β-CD 10% (w/v) autonomically drinking, 0 Day) was 100.0 ± 0.0%, the “Change in body weight (%)” value ([3]; Table 18, β-CD 10% (w/v) autonomically drinking, 1 Day) was 99.8 ± 0.8% and the “Change in body weight (%)” value ([3]; Table 18, β-CD 10% (w/v) autonomically drinking, 2 Day) was 98.5 ± 1.3%. For the same molecule, the “Change in body weight (%)” value ([3]; Table 18, β-CD 10% (w/v) autonomically drinking, 3 Day) was 98.2 ± 1.2%, the “Change in body weight (%)” value ([3]; Table 18, β-CD 20% (w/v) autonomically drinking, 0 Day) was 100.0 ± 0.0% and the “Change in body weight (%)” value ([3]; Table 18, β-CD 20% (w/v) autonomically drinking, 1 Day) was 99.1 ± 1.2%. For the same molecule, the “Change in body weight (%)” value ([3]; Table 18, β-CD 20% (w/v) autonomically drinking, 2 Day) was 98.6 ± 1.2%, the “Change in body weight (%)” value ([3]; Table 18, β-CD 20% (w/v) autonomically drinking, 3 Day) was 97.5 ± 1.0% and the “Change in body weight (%)” value ([3]; Table 18, β-CD 40% (w/v) autonomically drinking, 0 Day) was 100.0 ± 0.0%. The “Change in body weight (%)” value ([3]; Table 18, β-CD 40% (w/v) autonomically drinking, 1 Day) was 98.8 ± 1.1%, the “Change in body weight (%)” value ([3]; Table 18, β-CD 40% (w/v) autonomically drinking, 2 Day) was 97.0 ± 0.8% and the “Change in body weight (%)” value ([3]; Table 18, β-CD 40% (w/v) autonomically drinking, 3 Day) was 96.4 ± 1.3%. For the same molecule, the antiobesity effect [4] was “reduce weight”, the “degree of body weight decrease as compared with HPBCD” value (“degree of body weight decrease” below) [5] was “low” and the “increase in body weight as compared with the distilled water oral-administering group” value ([6]; 10 and 20% (W/V) oral) was “suppressed”. The “body weight as compared with the initial body weight” value ([6]; 10 and 20% (W/V) oral, Example 5) was “not decreased”, the “Body weight as percent” value ([6]; Table 15, BCD 10% (w/v) oral, 0 Day) was 100.0 ± 0.0% and the “Body weight as percent” value ([6]; Table 15, BCD 10% (w/v) oral, 1 Day) was 101.5 ± 2.1%. For the same molecule, the “Body weight as percent” value ([6]; Table 15, BCD 10% (w/v) oral, 2 Day) was 100.7 ± 1.9 %, the “Body weight as percent” value ([6]; Table 15, BCD 10% (w/v) oral, 3 Day) was 102.0 ± 2.5 % and the “Body weight as percent” value ([6]; Table 15, BCD 10% (w/v) oral, 4 Day) was 102.4 ± 4.0 %. The “Body weight as percent” value ([6]; Table 15, BCD 10% (w/v) oral, 5 Day) was 103.4 ± 4.1 %, the “Body weight as percent” value ([6]; Table 15, BCD 20% (w/v) oral, 0 Day) was 100.0 ± 0.0% and the “Change in body weight (%)” value ([6]; Table 15, BCD 20% (w/v) oral, 1 Day) was 100.3 ± 2.7 %. The “Body weight as percent” value ([6]; Table 15, BCD 20% (w/v) oral, 2 Day) was 102.1 ± 2.1 %, the “Body weight as percent” value ([6]; Table 15, BCD 20% (w/v) oral, 3 Day) was 103.1 ± 2.1 % and the “Body weight as percent” value ([6]; Table 15, BCD 20% (w/v) oral, 4 Day) was 103.7 ± 3.0 %. For the same molecule, the “Body weight as percent” value ([6]; Table 15, BCD 20% (w/v) oral, 5 Day) was 103.2 ± 2.6 %, the “Body weight as percent” value ([6]; Table 19, β-CD 10% (w/v) oral, 0 Day) was 100.0 ± 0.0% and the “Body weight as percent” value ([6]; Table 19, β-CD 10% (w/v) oral, 1 Day) was 100.5 ± 0.8%. The “Body weight as percent” value ([6]; Table 19, β-CD 10% (w/v) oral, 2 Day) was 100.1 ± 1.3%, the “Body weight as percent” value ([6]; Table 19, β-CD 10% (w/v) oral, 3 Day) was 99.8 ± 1.2% and the “Body weight as percent” value ([6]; Table 19, β-CD 15% (w/v) oral, 2 Day) was 99.0 ± 1.4%. The “Body weight as percent” value ([6]; Table 19, β-CD 15% (w/v) oral, 3 Day) was 98.5 ± 1.0%, the “Body weight as percent” value ([6]; Table 19, β-CD 20% (w/v) oral, 0 Day) was 100.0 ± 0.0% and the “Body weight as percent” value ([6]; Table 19, β-CD 20% (w/v) oral, 1 Day) was 99.5 ± 1.1%. For the same molecule, the “Body weight as percent” value ([6]; Table 19, β-CD 20% (w/v) oral, 2 Day) was 98.6 ± 0.8%, the “Body weight as percent” value ([6]; Table 19, β-CD 20% (w/v) oral, 3 Day) was 97.8 ± 1.3% and the “degree of body weight decrease” value [6] was “low”. The “difference of effect between 10 and 20% (W/V)” value ([6]; oral) was “no significant difference”.
For `OC[C@H]1O[C@@H]2O[C@H]3[C@H](O)[C@@H](O)[C@@H](O[C@H]4[C@H](O)[C@@H](O)[C@@H](O[C@H]5[C@H](O)[C@@H](O)[C@@H](O[C@H]6[C@H](O)[C@@H](O)[C@@H](O[C@H]7[C@H](O)[C@@H](O)[C@@H](O[C@H]1[C@H](O)[C@H]2O)O[C@@H]7CO)O[C@@H]6CO)O[C@@H]5CO)O[C@@H]4CO)O[C@@H]3CO` [α-CD, α-cyclodextrin], the “Change in body weight (%)” value ([3]; Table 16, α-CD 10% (w/v) autonomically drinking, 0 Day) was 100.0 ± 0.0%, the “Change in body weight (%)” value ([3]; Table 16, α-CD 10% (w/v) autonomically drinking, 1 Day) was 100.2 ± 0.2% and the “Change in body weight (%)” value ([3]; Table 16, α-CD 10% (w/v) autonomically drinking, 3 Day) was 100.1 ± 1.4%. The “Change in body weight (%)” value ([3]; Table 16, α-CD 15% (w/v) autonomically drinking, 0 Day) was 100.0 ± 0.0%, the “Change in body weight (%)” value ([3]; Table 16, α-CD 15% (w/v) autonomically drinking, 3 Day) was 98.9 ± 1.1% and the “Change in body weight (%)” value ([3]; Table 16, α-CD 20% (w/v) autonomically drinking, 0 Day) was 100.0 ± 0.0%. The “Change in body weight (%)” value ([3]; Table 16, α-CD 20% (w/v) autonomically drinking, 3 Day) was 98.5 ± 1.3%, the “Change in body weight (%)” value ([5]; Table 16, α-CD 10% (w/v) autonomically drinking, 2 Day) was 100.6 ± 0.4% and the “Change in body weight (%)” value ([5]; Table 16, α-CD 15% (w/v) autonomically drinking, 1 Day) was 99.8 ± 0.4%. For the same molecule, the “Change in body weight (%)” value ([5]; Table 16, α-CD 15% (w/v) autonomically drinking, 2 Day) was 99.3 ± 0.8%, the “Change in body weight (%)” value ([5]; Table 16, α-CD 20% (w/v) autonomically drinking, 1 Day) was 99.8 ± 0.8% and the “Change in body weight (%)” value ([5]; Table 16, α-CD 20% (w/v) autonomically drinking, 2 Day) was 99.0 ± 1.4%. The “degree of body weight decrease” value [5] was “low”, the “Body weight as percent” value ([6]; Table 17, α-CD 10% (w/v) oral, 0 Day) was 100.0 ± 0.0% and the “Body weight as percent” value ([6]; Table 17, α-CD 10% (w/v) oral, 1 Day) was 101.3 ± 0.4%. The “Body weight as percent” value ([6]; Table 17, α-CD 10% (w/v) oral, 2 Day) was 100.5 ± 1.6%, the “Body weight as percent” value ([6]; Table 17, α-CD 10% (w/v) oral, 3 Day) was 100.2 ± 2.7% and the “Body weight as percent” value ([6]; Table 17, α-CD 20% (w/v) oral, 0 Day) was 100.0 ± 0.0%. For the same molecule, the “Body weight as percent” value ([6]; Table 17, α-CD 20% (w/v) oral, 1 Day) was 99.8 ± 0.8%, the “Body weight as percent” value ([6]; Table 17, α-CD 20% (w/v) oral, 2 Day) was 99.5 ± 1.2% and the “Body weight as percent” value ([6]; Table 17, α-CD 20% (w/v) oral, 3 Day) was 99.2 ± 1.0%. The “Body weight as percent” value ([6]; Table 17, α-CD 40% (w/v) oral, 0 Day) was 100.0 ± 0.0%, the “Body weight as percent” value ([6]; Table 17, α-CD 40% (w/v) oral, 1 Day) was 99.6 ± 1.0% and the “Body weight as percent” value ([6]; Table 17, α-CD 40% (w/v) oral, 2 Day) was 99.0 ± 1.2%. For the same molecule, the “Body weight as percent” value ([6]; Table 17, α-CD 40% (w/v) oral, 3 Day) was 98.2 ± 1.3% and the “degree of body weight decrease” value [6] was “low”.
